The structures appear in SMILES notation.

Turning to `COC(=O)N(C(=O)NN=C1c2ccc(Cl)cc2CC1(O)C(=O)OC)c1ccc(OC(F)(F)F)cc1` (centres undefined), the melting point worked out at 168 °C.

In the case of `CN(C)c1ccc2cc(Cl)cnc2c1C#N`, the melting point was found to be 174 °C.

Consider `COc1cc(I)nc(N)n1`, for which the melting point fell in the range of 142 to 144 °C.

As to `Oc1ccc(-c2n[nH]c3c2Cc2ccccc2-3)cc1`, the melting point lay in the range of 266 to 268 °C.

For the molecule `N#CC(=O)c1ccccc1Cl`, the melting point came out at 33 °C.

The molecule `Cc1ncncc1NC(=O)c1ccc(-n2nc(C(F)(F)F)cc2C2CC2)c(F)c1` showed a melting point of 150 to 152 °C.

For `Fc1ccc([C@@]2(Cn3nc[nH]c3=S)O[C@@H]2c2ccccc2F)c(F)c1` (relative stereo), the melting point lay within 144 to 148 °C.

Molecule `O=C1c2ccccc2C(=O)N1CC(=CBr)c1ccccc1` came in with a melting point of 128 to 129 °C.

As for `Cn1c(C(F)(F)F)cc(=O)n(-c2ccc3snc(-c4nc5ccccc5[nH]c4=O)c3c2)c1=O`, the melting point was above 250 °C.

`COc1ccc(Cc2nc3c(N)nc4ccccc4c3n2CCCCNC(=O)c2ccc3ccccc3n2)cc1`: the melting point was 95.1 to 97.4 °C.

Turning to `Cc1ccc(Oc2c(F)cc(C(F)(F)F)cc2Cl)cc1[N+](=O)[O-]`, the melting point lay within 113 to 115 °C.

`COC(=O)c1ccc(-c2nnc(-c3ccc(C(F)(F)F)cc3)o2)c([N+](=O)[O-])c1` yielded a melting point of 173 to 174 °C.

Turning to `CC(NC(=O)C=Cc1ccc(Cl)cc1)c1ccc(NS(C)(=O)=O)c(F)c1` (centres undefined), the melting point fell in the range of 170 to 172 °C.

Take `CC[C@H](COC)n1cc(Br)nc(N2CCc3cc(OC)c(F)c(Cl)c32)c1=O`: the melting point was 150 to 152 °C.

`O=C(CCCc1cnoc1-c1ccccc1)Nc1ccc(-n2ccnc2)cc1` registered a melting point of 132 to 133 °C.

On to `CCOC(=O)c1cc2c(C)c(-c3ccc(Cl)cc3)c(=O)oc2nc1C(=O)OCC`, for which the melting point fell in the range of 179 to 181 °C.

Consider `CC1=CN(C)C2=NC(C)N(c3ccc(C#N)cc3)C2=C1` (centres undefined), for which the melting point lay within 260 to 262 °C.

The molecule `O=C(Cc1ccccc1)N[C@H]1CN(OCc2ccccc2)C1=O` yielded a melting point of 130 to 131 °C.

Molecule `CCCCNC(=O)c1nc(-c2ccccc2)c(-c2ccc(=O)n(C(C)C)n2)s1` had a melting point of 148 °C.

`CC(C)Oc1ccc(OCc2ccccc2)cc1-c1nc2cc(C=O)cnc2[nH]1` had a melting point of 170 to 171 °C.

Turning to `COc1cc(COc2nn(-c3ccccc3)cc2CCO)ccc1OCc1nc(-c2ccco2)oc1C`, the melting point lay in the range of 123 to 124 °C.

In the case of `CC(=N)NS(=O)(=O)C=Cc1ccc(Cl)cc1`, the melting point lay in the range of 161 to 163 °C.

In turn, `CC(=O)N1CCC(Oc2ccc([N+](=O)[O-])cc2C)CC1` gave a melting point of 139 to 141 °C.

The molecule `O=C(NCCNS(=O)(=O)c1ccc(Oc2ccccc2)cc1)P(=O)(O)O` gave a melting point of 166 to 169 °C.

As to `COc1ccc2c(c1)N(C1CN3CCC1CC3)c1ccccc1S2` (centres undefined), the melting point stood at 158 °C.

`COc1cccc([C@H](C(C)C)N2CCC(c3noc4cc(F)ccc34)CC2)c1` came in with a melting point of 40 to 42 °C.

Molecule `OCc1ccc(/C=C/c2ccncc2)cc1` displayed a melting point of 211 to 213 °C.

For the molecule `NS(=O)(=O)c1ccc(C2=C(c3ccc(Cl)c(Cl)c3)CCC2)cc1`, the melting point is 134 to 135 °C.

Turning to `O=C(Nc1ccccc1S(=O)(=O)c1ccccc1)N[C@@H](Cc1ccc(Nc2nccc3ccncc23)cc1)C(=O)O`, the melting point amounted to 184 °C.

In turn, `COc1cccc(C23CCCC=C2C(=O)NC(=O)C3)c1` (centres undefined) had a melting point of 230 to 232 °C.

Molecule `CCOC(=O)C(C)(C)Oc1ccc(-c2ccc(CCNC(=O)c3cc(OC)cc(OC)c3)cc2)cc1` displayed a melting point of 74 °C.

The molecule `Nc1ccc([N+](=O)[O-])cc1OCCc1cccc2ccccc12` displayed a melting point of 151 to 153 °C.

Regarding `NCc1ccc(O)cc1`, the melting point was found to be 104 °C.

In turn, `CCN(CC)CC(O)c1cccc2ccoc12` (centres undefined) showed a melting point of 116 °C.

For `Cc1cccc(Nc2cc(Nc3ccc(OCC(=O)N(C)C)cc3)ncn2)c1`, the melting point is 135 to 138 °C.

In the case of `COCc1ccc(C(=O)NCC#N)cc1`, the melting point was 107 to 108 °C.

For `CCCCSc1cc(C(=O)O)cc(N)c1Oc1ccccc1`, the melting point is 131 to 132 °C.

`c1cc(-c2ccnc3nc(N4CCNCC4)nn23)ccn1` returned a melting point of 147 to 149 °C.

Take `OCc1cccc2c1[nH]c1c3cc(Br)ccc3oc21`: the melting point was in the range of 218 to 219 °C.

Consider `CC(C)Nc1c(-c2ccc(C#N)cc2)c(Cl)nc2ncnn12`, for which the melting point turned out to be 190 °C.

As for `CC(C)NC(=O)CS(=O)CC(=O)c1ccc(-c2ccccc2)cc1` (centres undefined), the melting point was 138 °C.

In turn, `CN(C)c1ccc2c(n1)C(c1ccccc1Cl)=NCc1n[nH]c(=O)n1-2` gave a melting point of 244 to 246 °C.

For the molecule `COc1ccc2c(c1)C1(C)CC(=O)N(C)C1(O)CC2` (centres undefined), the melting point lay in the range of 182 to 186 °C.

For the molecule `CCCCCCNC(=O)Oc1cccc(NC(=O)CC(C)(OC)OC)c1`, the melting point came to 110 °C.

In turn, `CC(=O)c1c(-c2ccncc2)[nH]c(-c2ccncc2)c1CO` came in with a melting point of 205 to 207 °C.

Molecule `Nc1nc2ccccc2c2c1ncn2CCNC(=O)CCc1ccccc1` displayed a melting point of 254 to 256 °C.

Take `COc1c(C(=O)O)cc(Cl)c(N)c1C`: the melting point was 151 °C.

The molecule `CC1=NN=C(C=Cc2ccc(F)cc2)c2cc3c(cc2C1)OCO3` had a melting point of 141 to 144 °C.

Molecule `N#Cc1cc([N+](=O)[O-])ccc1Oc1ccccc1` came in with a melting point of 126 °C.

Turning to `O=C1c2cc(Oc3ccc(F)cc3)ccc2CN1Cc1cccnc1`, the melting point was in the range of 115 to 116 °C.

For the molecule `COc1ccc(C(=O)c2ccc(Cl)cc2F)c(Cl)c1Cl`, the melting point was 115 to 116 °C.

Take `CCCCc1ncc(/C(C)=C(\Cc2cccs2)C(=O)O)n1Cc1ccc(C#N)cc1`: the melting point was in the range of 210 to 212 °C.

As for `FC(F)Sc1nnc(-c2ccc(Cl)cc2)s1`, the melting point was 74 to 76 °C.

`COc1ccccc1N1CCN(CC(O)COc2cc(C)c(O)c(C)c2C)CC1` (centres undefined) came in with a melting point of 163 to 165 °C.

Molecule `Cc1c(NC(=O)c2ccc(-c3ccc(F)cc3)cc2)ccc2cc(C(O)c3ccccc3)cnc12` (centres undefined) yielded a melting point of 182 to 186 °C.

`O=C1c2ccc(Sc3ccc(Cl)cc3)cc2C(=O)N1Cc1cccnc1` yielded a melting point of 115 to 118 °C.

`CCOc1nc2c(Cl)cccc2s1` gave a melting point of 43 to 45 °C.

Turning to `CC(=O)OC1CSC(Oc2cnccc2-c2ccoc2)C(OC(C)=O)C1OC(C)=O` (centres undefined), the melting point worked out at 167 °C.

Consider `CCOC(=O)C(C)(C)C(=O)C(Oc1ccc(Cl)cc1)n1cncn1` (centres undefined), for which the melting point fell in the range of 88 to 89 °C.

In turn, `CNC(=O)N1CC(=O)Nc2ccc([N+](=O)[O-])cc2C1c1ccccc1` (centres undefined) had a melting point of 176 to 180 °C.

`Cc1ccccc1C(=O)Nc1cccc(C(C)C)c1` gave a melting point of 70 to 71 °C.

Molecule `CCOc1c(C)cnc(CSc2nc3cc4c(cc3[nH]2)OCO4)c1C` came in with a melting point of 184 to 185 °C.

`CCOC(=O)c1c(C(F)(F)F)nc(C(F)(F)Cl)c(C(=O)OC)c1N` had a melting point of 69 to 70 °C.

For the molecule `Fc1ccc(Cn2c(NC3CCN(CCNc4nc5ccccc5[nH]4)CC3)nc3ccccc32)cc1`, the melting point stood at 253 °C.

`COc1cccc(CNC(=O)c2nc3ccc(F)c(OCCc4ccc(NS(N)(=O)=O)cc4)c3c(=O)[nH]2)c1` returned a melting point of 204 to 206 °C.

`O=C1NC(=O)c2c1c(-c1ccccc1Cl)cc1c2c(Br)cn1CCCN1CCOCC1` registered a melting point of 117 to 120 °C.

As to `O=C(OCCCCCCO)c1ccc(Oc2c3c(c(Oc4ccc(C(=O)OCCCCCCO)cc4)c4ccccc24)C(=O)c2ccccc2C3=O)cc1`, the melting point was 172 to 173 °C.

The molecule `CC(C)CC(=O)N1CCC(c2nc3cc(-c4ccc(-n5cnnn5)cc4F)ccc3o2)CC1` gave a melting point of 168 to 172 °C.

Consider `Cc1c(C)c2c(c(C)c1NS(=O)(=O)CCCC(F)(F)F)C(c1ccc(C(C)C)cc1)CO2` (centres undefined), for which the melting point fell in the range of 149 to 150 °C.

As to `CNC(=O)C1=C(c2ccccc2)OC(c2ccccc2)CC1=O` (centres undefined), the melting point fell in the range of 212 to 214 °C.

As to `Cc1cccc(-c2nc(Cl)cc(-c3ccccc3Cl)n2)n1`, the melting point stood at 133 °C.

For the molecule `CN1CCC(C2(O)c3ccccc3CCn3cccc32)CC1` (centres undefined), the melting point was 175 to 177 °C.

`CC(=O)NCc1ccc(Cl)nc1`: the melting point was 76 to 77 °C.

Molecule `N#Cc1[nH]c(-c2ccc(Cl)cc2)c(Br)c1-c1ccc(Cl)cc1` came in with a melting point of 98 to 100 °C.

`CCCCCCCCNc1ccc(NCCCCCCCC)c2c1C(=O)c1ccccc1C2=O` came in with a melting point of 72 to 74 °C.

Turning to `N#CC1=C(C2CC(=O)N(Cc3ccccc3)C2)Nc2n[nH]cc2C1c1ccccc1Cl` (centres undefined), the melting point is above 230 °C.

The molecule `N#CCCNC(=O)c1cccc(-c2cccc3c2CN(Cc2cccc(C(F)(F)F)c2)C3=O)c1` yielded a melting point of 191 to 192 °C.

Take `COC(=O)Cc1nnc2n1-c1ccc(Cl)cc1C(c1ccccc1)=NC2`: the melting point lay in the range of 202 to 204 °C.

The molecule `N[C@H]1CCN(c2cc3c(cc2F)c(=O)c(C(=O)O)cn3-c2nc[nH]n2)C1` returned a melting point of 250 to 260 °C.

With `O=c1c2nc(Br)n(Cc3ccccc3)c2ncn1Cc1ccccc1`, the melting point lay in the range of 161 to 162 °C.

For `COc1nc(Cl)nc(NC(C#N)C#N)n1`, the melting point lay in the range of 164 to 166 °C.

Regarding `CC1(C)c2cc(OS(C)(=O)=O)ccc2OC1O` (centres undefined), the melting point was in the range of 69 to 72 °C.

Take `N#Cc1ccc(N2C=CC(N)=C([N+](=O)[O-])C2)cc1`: the melting point was 210 to 211 °C.

With `CS(=O)(=O)c1ccc(C(=O)CC(=O)C2CC2)c(Cl)c1-c1nccs1`, the melting point is 146 to 147 °C.

Regarding `CN(Cc1cc2ccccc2n1C)C(=O)/C=C/c1ccc(NC(=O)CCC(N)=O)nc1`, the melting point fell in the range of 225 to 227 °C.

`OC(c1cnc2c(cnn2-c2ccccc2)c1)(c1c[nH]c2ncccc12)C(F)(F)F` (centres undefined) yielded a melting point of 137 to 141 °C.

Molecule `CCC(CC)Nc1c([N+](=O)[O-])cc(C)c(N)c1[N+](=O)[O-]` gave a melting point of 157 to 160 °C.

In the case of `Cc1c(C)c(Br)c2c(c1C)C(=O)C(C)(C)O2`, the melting point was in the range of 145 to 146 °C.

With `CCOc1cc2c(Nc3cc(OC)c(Cl)cc3Cl)c(C#N)cnc2cc1Br`, the melting point is above 250 °C.

Source of the values: a melting point compilation (Tetko et al.; mined from patent text by program, amines drawn as free bases though some values may be those of a salt).
